Source: ChEMBL document CHEMBL4837225, “Water-soluble derivatives of evodiamine: Discovery of evodiamine-10-phosphate as an orally active antitumor lead compound” (Eur J Med Chem, 2021)

Experiments:
A549 = assay: Antiproliferative activity against human A549 cells assessed as inhibition of cell proliferation incubated for 72 hrs by CCK8 assay; assay type: functional, cell-based; conditions: A549, 72 h
[1] = molecular target: T1, DNA topoisomerase 1 (Homo sapiens) (UniProt P11387); assay: Inhibition of TOP1 (unknown origin) assessed as decrease in relaxation of supercoiled DNA using pBR322 plasmid DNA by ethidium bromide staining based gel electrophoresis
T1 sequence (whole entry): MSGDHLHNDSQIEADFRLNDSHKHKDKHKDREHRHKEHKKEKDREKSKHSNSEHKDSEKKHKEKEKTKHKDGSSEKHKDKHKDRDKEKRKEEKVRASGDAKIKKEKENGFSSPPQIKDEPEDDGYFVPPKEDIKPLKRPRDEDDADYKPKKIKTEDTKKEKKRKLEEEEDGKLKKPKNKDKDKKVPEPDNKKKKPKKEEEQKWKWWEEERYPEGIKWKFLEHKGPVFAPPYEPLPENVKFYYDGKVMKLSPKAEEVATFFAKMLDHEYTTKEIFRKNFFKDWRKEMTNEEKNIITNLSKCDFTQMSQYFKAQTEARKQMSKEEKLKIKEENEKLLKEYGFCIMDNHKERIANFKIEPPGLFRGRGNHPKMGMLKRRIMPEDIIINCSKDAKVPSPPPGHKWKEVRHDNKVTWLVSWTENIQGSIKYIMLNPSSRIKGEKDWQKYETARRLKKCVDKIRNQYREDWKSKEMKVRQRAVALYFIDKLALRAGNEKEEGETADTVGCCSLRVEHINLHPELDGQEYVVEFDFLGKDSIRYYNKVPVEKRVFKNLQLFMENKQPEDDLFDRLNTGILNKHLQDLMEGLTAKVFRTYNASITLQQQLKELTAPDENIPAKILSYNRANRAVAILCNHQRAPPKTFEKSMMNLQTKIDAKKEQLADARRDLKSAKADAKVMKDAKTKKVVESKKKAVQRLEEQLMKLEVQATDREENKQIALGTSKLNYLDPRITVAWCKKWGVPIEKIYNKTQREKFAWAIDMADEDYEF

SMILES: CN1c2ccccc2C(=O)N2CCc3c([nH]c4ccc(OP(=O)(O)O)cc34)C21 (configuration not stated)
- IC50 (A549): 2.6 µM
- inhibition [1]: Dose-Dependent Effect
